A short description of data set [1]: Release of Strecker aldehyde from 3-oxazoline precursor stirred in water at 37° C. (stable isotope dilution, HS-GC-MS / GC-MS). The data set is classed as physicochemical. To be noted: for isomer I (unreacted) (mol %) / isomer II (formed) (mol %): starting from isomer I; for isomer I (formed) (mol %) / isomer II (unreacted) (mol %): starting from isomer II.
Data set [2] is described as follows: Impact of pH value on release of Strecker aldehyde from 3-oxazoline precursor in buffer solution at 37° C. The data set is classed as physicochemical. The procedure:
(§1) 2-(2-Methylpropyl)-5-methyl-3-oxazoline (dissolved in pentane/diethyl ether; 2 mL) was added to ethanol (0.5 mL). The pentane/diethyl ether was carefully evaporated, and finally made up to 5 mL with ethanol. […] A control experiment was performed with 2-(2-methylpropyl)-5-methyl-3-oxazoline and the respective standard without adding the respective buffer solution. For headspace measurements, the samples were directly subjected to HS-GC-MS. For liquid measurements, the samples were cooled in an ice bath and extracted with diethyl ether (3×15 mL; liquid-liquid extraction). The organic phases were combined, dried over anhydrous sodium sulphate, and the solvent was distilled off (20° C., 500 mbar) to about 4 mL. An aliquot (2 μL) was used for the stable isotope dilution assays ((GC-) GC-MS).
as §1, with “2-Methylphenyl-5-methyl-3-oxazoline” for “2-(2-Methylpropyl)-5-methyl-3-oxazoline”, “2-methylphenyl-5-methyl-3-oxazoline” for “2-(2-methylpropyl)-5-methyl-3-oxazoline”

Where [3] appears, read: 5 min, stirred in water at 37° C.
The mark [4] stands for this setting: 15 min, stirred in water at 37° C.
The mark [5] stands for this setting: 30 min, stirred in water at 37° C.
[6] abbreviates: Control experiment without addition of water.
Setting [7] is: Control experiment without addition of water, in relation to amount of precursor used.
[8] abbreviates: Control without addition of water.

Data on seven compounds can be found in patent US20150044346A1, “USE OF OXAZOLINES AS AROMA/FLAVOUR PRECURSORS” (NESTEC S.A., priority 2012, published 2015).

Several values for one entry are separate records, joined by “and”; a condition that tells them apart may be missing. Identical values can stand only once. Some results are limits rather than exact numbers.

Turning to `CC1C=NC(C(C)C)O1` (single isomer, unassigned) [2-(1-methylethyl)-5-methyl-3-oxazoline], the “methylpropanal (mol %) generated from precursor” value is reported as 46.0 mol % in data set [1] (setting [3]), 53.5 mol % in data set [1] (setting [4]), 56.1 mol % in data set [1] (setting [5]) and 0.1 mol % in data set [1] (setting [6]).
Take `CCC(C)C1N=CC(C)O1` (single isomer, unassigned) [2-(1-methylpropyl)-5-methyl-3-oxazoline]: the “2-methylbutanal (mol %) generated from precursor” value in data set [1] (setting [3]) stood at 14.6 mol %; in data set [1] (setting [4]), 33.3 mol %; in data set [1] (setting [5]) it was 55.6 mol %; in data set [1] (setting [6]), 1.1 mol %.
As for `CC(C)CC1N=CC(C)O1` (single isomer, unassigned) [2-(2-methylpropyl)-5-methyl-3-oxazoline isomer I, 2-(2-methylpropyl)-5-methyl-3-oxazoline], the “3-methylbutanal (mol %) generated from precursor” value turned out to be 72.7 mol % in data set [1] (setting [3]), 82.4 mol % in data set [1] (setting [4]), 91.1 mol % in data set [1] (setting [5]) and 0.3 mol % in data set [1] (setting [7]). Also, the “isomer I (unreacted) (mol %)” value turned out to be 16.2 mol % in data set [1] (5 min, water 37° C.); 8.4 mol % in data set [1] (15 min, water 37° C.); 2.9 mol % in data set [1] (30 min, water 37° C.); 98.1 mol % in data set [1] (setting [8]). The “isomer II (formed) (mol %)” value in data set [1] (5 min, water 37° C.) is recorded as 5.1 mol %; in data set [1] (15 min, water 37° C.) it was 10.2 mol %; in data set [1] (30 min, water 37° C.), 4.3 mol %; in data set [1] (setting [8]) it was 1.9 mol %. The “3-methylbutanal released / precursor converted to Strecker aldehyde” value in data set [1] (5 min after addition of water at 37° C.) was 73%. Further, in data set [1] (after 5 min, water 37° C.), the “corresponding isomer II formed from purified isomer I” value is 5%. Also, the 3-methylbutanal released in data set [1] (after 15 min, water 37° C.) is over 80%; in data set [1] (after 30 min, water 37° C.), > 90% and 91%.
`CC(C)CC1N=CC(C)O1` (single isomer, unassigned) [2-(2-methylpropyl)-5-methyl-3-oxazoline isomer II, 2-(2-methylpropyl)-5-methyl-3-oxazoline]: the “3-methylbutanal (mol %) generated from precursor” value in data set [1] (setting [3]) is listed as 72.5 mol %; in data set [1] (setting [4]), 81.4 mol %; in data set [1] (setting [5]), 92.2 mol %; in data set [1] (setting [7]) it was 0.4 mol %. The “isomer I (formed) (mol %)” value in data set [1] (5 min, water 37° C.) is given as 3.0 mol %; in data set [1] (15 min, water 37° C.), 3.7 mol %; in data set [1] (30 min, water 37° C.), 2.2 mol %; in data set [1] (setting [8]), 1.7 mol %. Also, the “isomer II (unreacted) (mol %)” value in data set [1] (5 min, water 37° C.) is on record as 25.7 mol %; in data set [1] (15 min, water 37° C.) it was 16.7 mol %; in data set [1] (30 min, water 37° C.), 7.2 mol %; in data set [1] (setting [8]), 98.3 mol %.
`Cc1ccccc1C1N=CC(C)O1` (single isomer, unassigned; isomer i) [2-methylphenyl-5-methyl-3-oxazoline isomer I, 2-methylphenyl-5-methyl-3-oxazoline]: the “phenylacetaldehyde (mol %) generated from precursor” value is 16.6 mol % in data set [1] (setting [3]), 23.1 mol % in data set [1] (setting [4]), 42.5 mol % in data set [1] (setting [5]) and 0.2 mol % in data set [1] (setting [6]). In addition, the “isomer I (unreacted) (mol %)” value in data set [1] (5 min, water 37° C.) was 31.8 mol %; in data set [1] (15 min, water 37° C.) it was 31.1 mol %; in data set [1] (30 min, water 37° C.) it was 22.3 mol %; in data set [1] (setting [8]), 98.0 mol %. Moreover, the “isomer II (formed) (mol %)” value in data set [1] (5 min, water 37° C.) amounted to 7.1 mol %; in data set [1] (15 min, water 37° C.), 6.3 mol %; in data set [1] (30 min, water 37° C.), 5.8 mol %; in data set [1] (setting [8]), 2.0 mol %. Moreover, the “corresponding isomer II formed from purified isomer I” value in data set [1] (after 5 min, water 37° C.) is listed as 7%. The phenylacetaldehyde liberated was 17% in data set [1] (after 5 min, water 37° C.); over 20% in data set [1] (after 15 min, water 37° C.); > 40% and 43% in data set [1] (after 30 min, water 37° C.).
On to `Cc1ccccc1C1N=CC(C)O1` (single isomer, unassigned; isomer ii) [2-methylphenyl-5-methyl-3-oxazoline isomer II, 2-methylphenyl-5-methyl-3-oxazoline], for which the “phenylacetaldehyde (mol %) generated from precursor” value in data set [1] (setting [3]) amounted to 17.2 mol %; in data set [1] (5 min, stirred in water at 37° C., listed as 2-methylphenyl-5-methyl-2-oxazoline isomer II) it was 17.2 mol %; in data set [1] (setting [4]) it was 32.2 mol %; in data set [1] (15 min, stirred in water at 37° C., listed as 2-methylphenyl-5-methyl-2-oxazoline isomer II), 32.2 mol %; in data set [1] (setting [5]), 46.5 mol %; in data set [1] (30 min, stirred in water at 37° C., listed as 2-methylphenyl-5-methyl-2-oxazoline isomer II), 46.5 mol %. Also, the “phenylacetaldehyde (mol %) generated from precursor” value in data set [1] (setting [6]) amounted to 0.3 mol %; in data set [1] (Control experiment without addition of water, listed as 2-methylphenyl-5-methyl-2-oxazoline isomer II), 0.3 mol %. Also, the “isomer I (formed) (mol %)” value is on record as 9.0 mol % in data set [1] (5 min, water 37° C.); 5.4 mol % in data set [1] (15 min, water 37° C.); 2.7 mol % in data set [1] (30 min, water 37° C.); 1.8 mol % in data set [1] (setting [8]). The “isomer II (unreacted) (mol %)” value came out at 28.6 mol % in data set [1] (5 min, water 37° C.); 26.0 mol % in data set [1] (15 min, water 37° C.); 20.2 mol % in data set [1] (30 min, water 37° C.); 98.2 mol % in data set [1] (setting [8]).
For the compound `Cc1ccccc1C1N=CC(C)O1` (centres unmarked) [2-methylphenyl-5-methyl-3-oxazoline], the “phenylacetaldehyde (mol %) generated from precursor” value in data set [2] (pH 5, Control without addition of buffer solution) is 0.4 mol %; in data set [2] (pH 5 buffer, 5 min, 37° C.), 41.2 mol %; in data set [2] (pH 5 buffer, 15 min, 37° C.) it was 72.1 mol %; in data set [2] (pH 5 buffer, 30 min, 37° C.), 87.7 mol %; in data set [2] (pH 7, Control without addition of buffer solution) it was 0.3 mol %; in data set [2] (pH 7 buffer, 5 min, 37° C.), 7.7 mol %. Besides, the “phenylacetaldehyde (mol %) generated from precursor” value in data set [2] (pH 7 buffer, 15 min, 37° C.) is listed as 18.0 mol %; in data set [2] (pH 7 buffer, 30 min, 37° C.), 30.2 mol %; in data set [2] (pH 9, Control without addition of buffer solution) it was 0.3 mol %; in data set [2] (pH 9 buffer, 5 min, 37° C.), 4.9 mol %; in data set [2] (pH 9 buffer, 15 min, 37° C.) it was 7.1 mol %; in data set [2] (pH 9 buffer, 30 min, 37° C.), 14.3 mol %.
